Source: patent US10231985B2, “Compounds and compositions comprising such compounds for the prevention or treatment of dyslipidaemias” (CENTRE NATIONAL DE LA RECHERCHE SCIENTIFIQUE, priority 2013, dated 2019)

Columns and labels:
[1] = system: phospholipids of the cellular membranes (hem1Δ strain); assay: Fatty acid content of cellular phospholipids (lipid extraction, ESI-MS); assay type: cell-based, Saccharomyces cerevisiae
Procedure: The hem1Δ strain is grown in liquid medium (YPG^A, YPG^+, or YPG^++200 μM compound to be tested) under aerobic conditions, with shaking and at 28° C. for 7 hours, from an initial cell concentration of 2×10^6 cells/ml. At the conclusion of the culture, 10^8 cells are collected in order to carry out a total lipid extraction. After having suspended the cells in 1 ml of distilled water at 4° C., 500 μl of glass beads (Ø 0.6 mm) are added and the whole then undergoes 3 sequences of 20 seconds at 5000 rpm in a shaker (the tubes are kept on ice between each of the 3 sequences). The cell lysate then obtained, supplemented with bead-washing solution (1 ml), is then transferred to a 40 ml glass tube (Corex™) before carrying out the lipid extraction using a 2:1 (v/v) methanol:chloroform ratio. First, 6 ml of methanol is added and the whole is vortexed for 30 seconds and then incubated for 15 minutes at 65° C. Once the mixture cools to room temperature, 3 ml of chloroform is added and then the whole is vortexed again for 30 seconds before allowing the extraction to proceed for 16 hours. Later, the sample is centrifuged for 12 minutes at 10000 g before transferring the supernatant to a new Corex™ tube. After adding 2 ml of chloroform and then 4 ml of distilled water, the whole is vortexed for 30 seconds and then centrifuged for 8 minutes at 3000 g. After removing the resulting upper phase, the lower organic phase is collected in a glass hemolysis tube. Finally, the solvent is evaporated under a stream of nitrogen at 80° C. in order to obtain the total cellular lipid samples.
The total cellular lipid samples are resuspended in 1 ml of dichloromethane while being vortexed for 30 seconds. The whole is deposited on a silica column (BOND ELUT-SI, 100 mg 1 ml) preconditioned successively with 3 ml of methanol and then 2 ml of dichloromethane. The fraction retained by the column is then washed successively with 2 ml of dichloromethane and then 3 ml of acetone. Finally, 2 ml of a 50:45:5 (v/v/v) chloroform/methanol/water mixture is deposited on the column and the phospholipids thus eluted are collected in a glass hemolysis tube. The solvent is evaporated under nitrogen at 80° C. in order to obtain the cellular phospholipid samples.
Once resuspended in 100 μl of the mixture Mix^− (2:1:1 (v/v/v) isopropanol/acetonitrile/water+1% (v/v) triethylamine) or the mixture Mix^+ (2:1:1 (v/v/v) isopropanol/acetonitrile/water+1% (v/v) formic acid), the samples are analyzed by electrospray ionization mass spectrometry (ESI-MS) in negative or positive mode, respectively, and the results obtained are used to analyze the fatty acid content of the various phospholipid species.

[2] = system: unfolded protein response (UPR); assay: Test of UPR triggering (4xUPRE-lacZ, β-galactosidase activity) in hem1Δ yeast; assay type: cell-based, Saccharomyces cerevisiae; conditions: 200 μM, liquid medium inducing SFA accumulation
From the text: A plasmid construction bearing a fusion gene, corresponding to the coding sequence of the lacZ gene placed under the control of an artificial promoter containing four UPR elements (UPRE), was introduced into a hem1Δ yeast strain, as described by Pineau et al. (2009). During UPR induction, the transcription factor Hac1p/XBP1p is activated and binds to the fusion gene UPRE, leading to the transcription of the lacZ gene. As lacZ encodes β-galactosidase, the level of UPR induction is thus measured by detecting the corresponding enzyme activity. The hem1Δ yeast strain was grown in liquid medium inducing SFA accumulation with no other addition (0), or in the same medium supplemented with 200 μM oleic acid, OAG or LPA, as indicated.
The hem1Δ strain transformed by the plasmid pPW344 [2μ URA3 4×UPRE-lacZ (Patil et al., 2004)] is grown in liquid medium (YPG^A, YPG, or YPG+200 μM compound to be tested), under aerobic conditions, with shaking at 28° C. for 7 hours, from an initial cell concentration of 2×10^6 cells/ml. At the conclusion of the culture, 10^8 cells are collected in order to quantify the β-galactosidase (β-gal) activity resulting from the expression of the lacZ transgene (in the case of UPR activation). […] For each sample, β-gal activity (U) is calculated using the formula U=(1000×[OD420 nm−(1.75×OD550 nm)])/(t×V×OD600 nm), expressed in arbitrary units.

Row | Structure (SMILES) | Effect on fatty acid composition of membrane phospholipids [1] | UPR induction level (β-galactosidase activity) [2]
1 | CCCCCCCC/C=C\CCCCCCCC(=O)OC[C@@H](O)COP(=O)(O)O [LPA, 1-oleoyl-sn-glycerol-3-phosphate] | act directly on lipid content | reduce the unfolded protein response (UPR)
2 | CCCCCCCC/C=C\CCCCCCCC(=O)OC[C@H](CO)OC(C)=O [OAG, 1-oleoyl-2-acetyl-sn-glycerol] | without restoring a normal diunsaturated phospholipid composition | reduce the unfolded protein response (UPR)
